PubChem BioAssay (NCI)
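Briefly, cells in 96-well plates were exposed to five compound concentrations for 48 h, and endpoints were estimated by linear interpolation. GI50 is the concentration that inhibits growth by half. The concentration for full growth arrest is given as TGI.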

Assays:
Test in all cases: NCI-60 cell line screen, 48 h
[1] = system: SR leukemia
[2] = system: HOP-62 NSCLC
[3] = system: NCI-H226 lung
[4] = system: SK-MEL-28 melanoma
[5] = system: SF-268 CNS
[6] = system: KM12 colon
[7] = system: OVCAR-5 ovarian
[8] = system: UACC-62 melanoma
[9] = system: SK-MEL-5 melanoma
[10] = system: RPMI-8226 leukemia

| Compound | GI50 [1] | TGI [1] | GI50 [2] | TGI [2] | GI50 [3] | TGI [3] | GI50 [4] | TGI [4] | GI50 [5] | TGI [5] | GI50 [6] | TGI [6] | GI50 [7] | TGI [7] | GI50 [8] | TGI [8] | GI50 [9] | TGI [9] | GI50 [10] | TGI [10] |
| --- | --- | --- | --- | --- | --- | --- | --- | --- | --- | --- | --- | --- | --- | --- | --- | --- | --- | --- | --- | --- |
| C[C@]12CCC3[C@@H](C[C@@H]4SC(Nc5ccccc5)=N[C@@]45CC(=O)CC[C@]35C)[C@@H]1CCC2=O (stereo partly drawn) | 2.58 µM | > 100 µM | 22.4 µM | > 100 µM | 7.36 µM | 45 µM | 20.5 µM | > 100 µM | 5.95 µM | 70 µM | 8.27 µM | 29.3 µM | 24.5 µM | > 100 µM | 9.54 µM | 29.6 µM | 10.2 µM | 26 µM | 2.73 µM | 7.44 µM |
| O=Cc1c(-c2cc(O)ccc2O)nc2sccn12 | 0.64 µM | 3.42 µM | 10.4 µM | 26.4 µM | 14.7 µM | 37.7 µM | 23.8 µM | 96.6 µM | 3.83 µM | 38.3 µM | 5.05 µM | 20.5 µM | 23.1 µM | 74.4 µM | 10.6 µM | 32 µM | 15.8 µM | 35.6 µM | 1.76 µM | 8.09 µM |
| CC(C)N(C(=O)C12C3C4C5(C#N)C3C1(I)C5C42I)C(C)C (stereo not drawn) |  | > 100 µM |  | > 100 µM |  | > 100 µM |  | > 100 µM |  | > 100 µM |  | > 100 µM |  | > 100 µM |  | > 100 µM |  | > 100 µM |  | > 67.2 µM |
| O=C(O)c1ccc2c(c1)Cc1cc([N+](=O)[O-])ccc1-2 |  | > 100 µM |  | > 100 µM |  | > 100 µM |  | > 100 µM |  | > 100 µM |  | > 100 µM |  | > 100 µM |  | > 100 µM |  | > 100 µM |  | 77.4 µM |
| O=C1CCC(Cc2ccc(Cl)cc2Cl)C(=O)N1 (stereo not drawn) |  | > 100 µM |  | > 100 µM |  | > 100 µM |  | > 100 µM |  | > 100 µM |  |  |  | > 100 µM |  | > 100 µM |  | > 100 µM |  | > 100 µM |
| Nc1ccccc1C#C/C=C\C#Cc1ccccc1C(F)(F)F | 0.247 µM | 0.691 µM | 0.588 µM | 18.7 µM | 0.233 µM | 19.3 µM | 18.2 µM | > 100 µM | 1.67 µM | 20.4 µM | 1 µM | 12.7 µM | 1.15 µM | 10.8 µM | 0.255 µM | 3.04 µM | 0.841 µM | 6.3 µM | 1.46 µM | > 51 µM |
| C=C1C(=O)O[C@H]2[C@H]1CC/C(COC(=O)NCc1cc3ccccc3[nH]1)=C\CC[C@@]1(C)O[C@@H]21 | 2.32 µM | 8.75 µM | 10.3 µM | 23.3 µM | 1.6 µM | 3.15 µM | 1.74 µM | 3.36 µM | 2.08 µM | 5.4 µM | 3.3 µM | 12.8 µM | 2.26 µM | 5.12 µM | 1.62 µM | 3.2 µM | 2.98 µM | 9.71 µM | 0.604 µM | 3.27 µM |
| CC1=C(/C=C/C(C)=C\C=C\C(C)=C\C(=O)Nc2ccc3c(c2)OCO3)C(C)(C)CCC1 | 11.3 µM | 47.7 µM | > 100 µM | > 100 µM | > 100 µM | > 100 µM | > 100 µM | > 100 µM | > 100 µM | > 100 µM | 39.2 µM | > 100 µM | > 100 µM | > 100 µM | > 100 µM | > 100 µM | 16.2 µM | 68.1 µM | 2.93 µM | > 100 µM |
| CC(=O)OC[C@H]1O[C@@H](n2ccc(=O)[nH]c2=O)[C@H](OC(C)=O)[C@@H]1OC(C)=O | > 100 µM | > 100 µM | > 100 µM | > 100 µM | > 100 µM | > 100 µM | > 100 µM | > 100 µM | > 100 µM | > 100 µM | > 100 µM | > 100 µM | > 100 µM | > 100 µM | > 100 µM | > 100 µM | > 100 µM | > 100 µM | > 100 µM | > 100 µM |
| CC1=C([Se]CC(OC(=O)CC[Se]c2ccccc2)C(=O)NCCCCCC(=O)OCc2ccccc2)C(=O)c2ccccc2C1=O (stereo not drawn) | 3.38 µM | 17.2 µM | 1.87 µM | 4.32 µM | 2.75 µM | 7.07 µM | 2.98 µM | 7.76 µM | 2.5 µM | 6.31 µM | 2.27 µM | 5.45 µM | 5.39 µM | 20.1 µM | 1.83 µM | 4.39 µM | 1.54 µM | 3.06 µM | 3.18 µM | 12.9 µM |
| O=c1n(C2CCCCC2)c(=C(Cl)Cl)c(=C(Cl)Cl)n1C1CCCCC1 |  | > 100 µM |  | > 100 µM |  | > 100 µM |  | > 100 µM |  | > 100 µM |  | > 100 µM |  | > 100 µM |  | > 100 µM |  | > 100 µM |  | > 100 µM |
| O=C1C(Cl)=C(Cl)C(=O)N1C1C2CC3CC(C2)CC1C3 (stereo not drawn) |  | > 100 µM |  | > 100 µM |  | > 100 µM |  | > 100 µM |  | > 100 µM |  |  |  | > 100 µM |  | > 100 µM |  | > 100 µM |  | > 80.5 µM |
| CCN(Cc1cccc(OC)c1)c1ccc(CO)c(Cl)c1 | 22.9 µM | 66.4 µM | 3.23 µM | 39.2 µM | 0.0957 µM | 0.231 µM | 14.7 µM | 35.8 µM | 22.5 µM | 71.6 µM | 17.1 µM | 40.5 µM | 0.157 µM | 0.606 µM | 0.0839 µM | 0.48 µM | 10.2 µM | 22.7 µM | 6.44 µM | 47.9 µM |
| COc1cc2oc(=O)ccc2cc1C1OC(=O)C2OC21C (stereo not drawn) |  | > 100 µM |  | > 100 µM |  | > 100 µM |  | > 100 µM |  | > 100 µM |  | > 100 µM |  | > 100 µM |  | > 100 µM |  | > 100 µM |  | > 100 µM |
| CCCC[C@H]1C(=O)O[C@H](C)[C@H](NC(=O)c2cccc(NC=O)c2O)C(=O)O[C@@H](C)[C@@H]1OC(=O)CC(C)C |  | 38.3 µM |  | 33.2 µM |  | 23.8 µM |  | 72.9 µM |  | 35.5 µM |  | 30.8 µM |  | 39 µM |  | 22.1 µM |  | 16.8 µM |  | 24.4 µM |
